Data: patent US5801149A, “Inhibition of signal transduction molecules” (Joslin D-abetes Center, Inc., priority 1995, dated 1998)
Non-standard residues stand in square brackets, D forms with d. Residues, ends and D or L forms follow the SMILES beside them. No end group written: not given here. Pmp = N[C@@H](Cc1ccc(CP(=O)(O)O)cc1)C(=O)O; dPmp = N[C@H](Cc1ccc(CP(=O)(O)O)cc1)C(=O)O; pY = N[C@@H](Cc1ccc(OP(=O)(O)O)cc1)C(=O)O

Target: T1, N-terminal p85 SH2/GST fusion protein (Homo sapiens, UniProt P27986)
T1 construct: N-terminal p85 SH2/GST fusion proteins (100 nM)
T1 sequence (P27986 333-428 limits assumed): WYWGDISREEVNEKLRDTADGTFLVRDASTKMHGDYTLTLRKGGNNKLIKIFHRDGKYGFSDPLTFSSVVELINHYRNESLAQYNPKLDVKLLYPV
Assay: biochemical
Format: binding
Settings: not given
Protocol: Peptide Binding to Isolated Glutathione S-Transferase/SH2 Domain Fusion Proteins was determined as follows. N-terminal p85 SH2/GST fusion proteins (100 nM) (Hu et al., 1992, Mol. Cell. Biol. 12:981-990), 35 fmol of HPLC-purified, [^125 I]Bolton-Hunter-treated phosphopeptide (67 nCi) and varying concentrations of unlabeled peptides were combined in 200 μl total volume of 20 mM tris-HCl, 250 mM NaCl, 0.1% bovine serum albumin, 10 mM dithiothreitol, pH 7.4. Glutathione-agarose (25 μl of a 1:4 aqueous slurry, Molecular Probes) was added and the samples were incubated at 22° C. for 4 h. Following centrifugation for 5 min at 12,000×g, supernatant solutions were removed by aspiration and [^125 I]radioactivity associated with the pellets was determined with a […].
Phosphopeptide and phosphonopeptide binding to p85 SH2 domains. To investigate the mechanism of phosphonopeptide inhibition of association direct binding to an isolated SH2 domain of the p85 of PI 3-kinase was analyzed. In the assay, tracer amounts of [^125 I]-labeled phosphopeptide, SH2 domain/GST fusion protein, and varying concentrations of unlabeled peptides were incubated together along with glutathione-agarose. […] ID50 values were determined as the concentration of unlabeled peptide required to inhibit 50% of specific [^125 I]phosphopeptide binding. […]

Row | Compound | IC50 [µM]
1 | CSCC[C@H](NC(=O)[C@@H]1CCCN1C(=O)[C@H](CCSC)NC(=O)[C@@H](Cc1ccc(CP(=O)(O)O)cc1)NC(=O)[C@H](CCC(=O)O)NC(=O)[C@H](CCC(=O)O)NC(=O)[C@@H](N)CCC(=O)O)C(=O)N[C@@H](CCC(=O)O)C(=O)N[C@@H](CC(=O)O)C(=O)N[C@@H](CC(C)C)C(=O)N[C@@H](Cc1ccc(O)cc1)C(=O)O [D-mT-Pmp315] (H-EEE[dPmp]MPMEDLY-OH) | 131
2 | CSCC[C@H](NC(=O)[C@@H]1CCCN1C(=O)[C@H](CCSC)NC(=O)[C@H](Cc1ccc(CP(=O)(O)O)cc1)NC(=O)[C@H](CCC(=O)O)NC(=O)[C@H](CCC(=O)O)NC(=O)[C@@H](N)CCC(=O)O)C(=O)N[C@@H](CCC(=O)O)C(=O)N[C@@H](CC(=O)O)C(=O)N[C@@H](CC(C)C)C(=O)N[C@@H](Cc1ccc(O)cc1)C(=O)O [L-mT-Pmp315] (H-EEE[Pmp]MPMEDLY-OH) | 7.2

Target: T2, Rat PTPase 1B (Rattus norvegicus, UniProt P20417)
T2 construct: cloning the full-length cDNA into the bacterial expression vector, PKK233-2; made in house; host or cells: bacteria (vector PKK233-2)
T2 sequence (P20417 1-432): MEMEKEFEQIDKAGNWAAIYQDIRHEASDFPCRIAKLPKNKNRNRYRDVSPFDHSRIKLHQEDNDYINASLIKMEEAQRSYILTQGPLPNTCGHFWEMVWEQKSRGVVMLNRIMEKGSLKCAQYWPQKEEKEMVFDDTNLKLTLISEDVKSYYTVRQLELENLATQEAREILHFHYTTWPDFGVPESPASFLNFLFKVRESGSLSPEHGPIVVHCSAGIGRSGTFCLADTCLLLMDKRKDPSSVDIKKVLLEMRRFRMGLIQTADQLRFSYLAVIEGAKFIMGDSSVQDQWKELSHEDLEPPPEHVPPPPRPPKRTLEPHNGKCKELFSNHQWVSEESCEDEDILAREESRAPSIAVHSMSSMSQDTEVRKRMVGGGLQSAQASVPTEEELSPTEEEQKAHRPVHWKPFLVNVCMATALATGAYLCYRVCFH
Assay: PTPase 1B peptide dephosphorylation (Km) and inhibition (Ki)
Format: biochemical
Settings: Pmp and Pmp-peptides as inhibitors
Protocol: The phosphopeptides were used as substrates of PTPase 1B, a single catalytic domain PTPase with a […] tissue distribution (Hunter et al., 1989, cell 58:1013). Rat PTPase 1B (Guan et al., 1990, Proc. Natl., Acad. Sci. USA 87:1501) was obtained by PCR and cloning the full-length cDNA into the bacterial expression vector, PKK233-2.
Sequence specificity for peptide dephosphorylation was observed, with apparent Km values ranging from <2 μM for the phospho-middle t sequence to >2 mM for pTyr itself (Table 3).
Several phosphono peptides were tested for the ability to inhibit PTPase 1B activity and KI values determined by methods known to those skilled in the art.

Row | Compound | Ki [µM]
3 | CC[C@H](C)[C@H](NC(=O)[C@H](CC(=O)O)NC(=O)[C@@H](N)CCCNC(=N)N)C(=O)N[C@@H](Cc1ccc(CP(=O)(O)O)cc1)C(=O)N[C@@H](CCC(=O)O)C(=O)N[C@H](C(=O)N[C@@H](CC(=O)O)C(=O)N[C@@H](Cc1ccc(O)cc1)C(=O)N[C@@H](Cc1ccc(O)cc1)C(=O)N[C@@H](CCCNC(=N)N)C(=O)N[C@@H](CCCCN)C(=O)O)[C@@H](C)O [IR1155-1165(L-Pmp1158), RDI[L-Pmp]ETDYYRK] (H-RDI[Pmp]ETDYYRK-OH; N-terminus assumed) | 30
4 | CC[C@H](C)[C@H](NC(=O)[C@H](CC(=O)O)NC(=O)[C@@H](N)CCCNC(=N)N)C(=O)N[C@H](Cc1ccc(CP(=O)(O)O)cc1)C(=O)N[C@@H](CCC(=O)O)C(=O)N[C@H](C(=O)N[C@@H](CC(=O)O)C(=O)N[C@@H](Cc1ccc(O)cc1)C(=O)N[C@@H](Cc1ccc(O)cc1)C(=O)N[C@@H](CCCNC(=N)N)C(=O)N[C@@H](CCCCN)C(=O)O)[C@@H](C)O [IR1155-1165(d-Pmp1158), RDI[D-Pmp]ETDYYRK] (H-RDI[dPmp]ETDYYRK-OH; N-terminus assumed) | 30
5 | RDIPmpETDPmpPmpRK [IR1155-1165(D,L-Pmp3)] | < 2

Same assay, conditions: apparent Km, phosphotyrosine and pY-peptides as substrates

Row | Km [µM] | Compound
6 | 30 | CC[C@H](C)[C@H](NC(=O)[C@H](CC(=O)O)NC(=O)[C@@H](N)CCCNC(=N)N)C(=O)N[C@@H](Cc1ccc(OP(=O)(O)O)cc1)C(=O)N[C@@H](CCC(=O)O)C(=O)N[C@H](C(=O)N[C@@H](CC(=O)O)C(=O)N[C@@H](Cc1ccc(O)cc1)C(=O)N[C@@H](Cc1ccc(O)cc1)C(=O)N[C@@H](CCCNC(=N)N)C(=O)N[C@@H](CCCCN)C(=O)O)[C@@H](C)O [1R1155-1165(pY1158), RDIpYETDYYRK] (H-RDI[pY]ETDYYRK-OH)
7 | 40 | CC[C@H](C)[C@H](NC(=O)[C@H](CC(=O)O)NC(=O)[C@@H](N)CCCNC(=N)N)C(=O)N[C@@H](Cc1ccc(O)cc1)C(=O)N[C@@H](CCC(=O)O)C(=O)N[C@H](C(=O)N[C@@H](CC(=O)O)C(=O)N[C@@H](Cc1ccc(OP(=O)(O)O)cc1)C(=O)N[C@@H](Cc1ccc(O)cc1)C(=O)N[C@@H](CCCNC(=N)N)C(=O)N[C@@H](CCCCN)C(=O)O)[C@@H](C)O [IR1155-1165(pY1162), RDIYETDpYYRK] (H-RDIYETD[pY]YRK-OH)
8 | 30 | CC[C@H](C)[C@H](NC(=O)[C@H](CC(=O)O)NC(=O)[C@@H](N)CCCNC(=N)N)C(=O)N[C@@H](Cc1ccc(O)cc1)C(=O)N[C@@H](CCC(=O)O)C(=O)N[C@H](C(=O)N[C@@H](CC(=O)O)C(=O)N[C@@H](Cc1ccc(O)cc1)C(=O)N[C@@H](Cc1ccc(OP(=O)(O)O)cc1)C(=O)N[C@@H](CCCNC(=N)N)C(=O)N[C@@H](CCCCN)C(=O)O)[C@@H](C)O [IR1155-1165(pY1163), RDIYETDYpYRK] (H-RDIYETDY[pY]RK-OH)
9 | 30 | CSCC[C@H](NC(=O)[C@@H]1CCCN1C(=O)[C@H](CCSC)NC(=O)[C@H](Cc1ccc(OP(=O)(O)O)cc1)NC(=O)CNC(=O)[C@H](CC(=O)O)NC(=O)[C@H](CC(=O)O)NC(=O)[C@@H](N)[C@@H](C)O)C(=O)N[C@@H](CO)C(=O)N1CCC[C@H]1C(=O)NCC(=O)N[C@H](C(=O)O)C(C)C [IRS-1(pY608), TDDGpYMPMSPGV] (H-TDDG[pY]MPMSPGV-OH)
10 | 100 | CSCC[C@H](NC(=O)[C@@H]1CCCN1C(=O)[C@H](CCSC)NC(=O)[C@H](Cc1ccc(OP(=O)(O)O)cc1)NC(=O)[C@H](CC(=O)O)NC(=O)CNC(=O)[C@H](CC(N)=O)NC(=O)CN)C(=O)N[C@@H](CO)C(=O)N1CCC[C@H]1C(=O)N[C@@H](CCCCN)C(=O)N[C@@H](CO)C(=O)O [IRS-1(pY628), GNGDpYMPMSPKS] (H-GNGD[pY]MPMSPKS-OH)
11 | 8 | CC[C@H](C)[C@H](NC(=O)[C@H](CO)NC(=O)[C@H](CCC(=O)O)NC(=O)[C@H](CC(=O)O)NC(=O)[C@@H](N)CCCCN)C(=O)N[C@@H](CC(=O)O)C(=O)N[C@@H](Cc1ccc(OP(=O)(O)O)cc1)C(=O)N[C@H](C(=O)N1CCC[C@H]1C(=O)N[C@@H](CCSC)C(=O)N[C@@H](CC(C)C)C(=O)N[C@@H](CC(=O)O)C(=O)N[C@@H](CCSC)C(=O)N[C@@H](CCCCN)C(=O)NCC(=O)N[C@@H](CC(=O)O)C(=O)O)C(C)C [mPDGF-Rβ(pY719), KDESIDpYVPMLDMKGD] (H-KDESID[pY]VPMLDMKGD-OH)
12 | 8 | C[C@@H](O)[C@H](N)C(=O)N[C@@H](CCC(=O)O)C(=O)N1CCC[C@H]1C(=O)N[C@@H](CCC(=O)O)C(=O)N[C@@H](Cc1ccc(OP(=O)(O)O)cc1)C(=O)N[C@@H](CCC(N)=O)C(=O)N1CCC[C@H]1C(=O)NCC(=O)N[C@@H](CCC(=O)O)C(=O)O [pp60^c-src (pYS27), TEPEpYQPGE] (H-TEPE[pY]QPGE-OH)

Row | Compound | Km [µM]
13 | CC[C@H](C)[C@H](NC(=O)[C@H](CCC(N)=O)NC(=O)[C@@H]1CCCN1C(=O)[C@H](C)NC(=O)[C@H](CCSC)NC(=O)[C@@H]1CCCN1C(=O)[C@H](CCSC)NC(=O)[C@H](Cc1ccc(OP(=O)(O)O)cc1)NC(=O)[C@H](CCC(=O)O)NC(=O)[C@H](CC(N)=O)NC(=O)[C@H](CCC(=O)O)NC(=O)[C@@H](N)CCCNC(=N)N)C(=O)N[C@@H](Cc1c[nH]cn1)C(=O)O [middle t(pY298), RENEpYMPMAPQIH] (H-RENE[pY]MPMAPQIH-OH) | < 2

Test system: IRS-1/PI 3-kinase association
Assay: Inhibition of association of PI 3-kinase activity (CHO cell extract) with immobilized phosphorylated IRS-1
Format: biochemical
Settings: dose-response studies
Protocol: Inhibiting interactions between IRS-1 and PI 3-kinase IRS-1 produced in a baculovirus expression system was adsorbed to anti-peptide (IRS-1) antibodies and phosphorylated by solubilized insulin receptors (which were then washed away). […] After incubation and additional washing, PI 3-kinase activity associated with the immobilized IRS-1 was determined as described, Auger et al. PI 3-kinase activity associated with IRS-1 only after phosphorylation by the insulin receptor. Various peptides were added during incubation of immobilized IRS-1 with the ChO cell extract (PI 3-kinase) to determine their ability to block association. Concentration dependent effects of phosphorylated vs. unphosphorylated middle T and IRS-1 […] YMXM sequences were determined. […] A detailed study of these effects is a major target of this proposal.

Row | Compound | ED50 for inhibition of IRS-1/PI 3-kinase association [µM]
14 | pY628: phosphorylated form of IRS-1 YMXM sequence Y628 (SEQ ID NO: 26, Table 1) (RKGNGDG[pY]MPMSPKSV) | ≤ 0.05

Target: T3, p85 SH2 domains (SH2/GST fusion protein) (Homo sapiens, UniProt P27986)
T3 construct: GST
T3 sequence (P27986 333-428 limits assumed): as the sequence (P27986 333-428 limits assumed) above
Assay: Biospecific interaction analysis of binding to p85 SH2 domains
Settings: isolated SH2 domains of PI 3-kinase p85; overview statement
Protocol: Therefore, mT-pY315 binding to p85 SH2 domains was analyzed using biospecific interaction analysis as previously described to obtain a more accurate estimate for KD. Series of data were obtained during real-time binding experiments with different concentrations of SH2/GST fusion protein (data not shown).

Row | Compound | Kd [µM]
15 | CSCC[C@H](NC(=O)[C@@H]1CCCN1C(=O)[C@H](CCSC)NC(=O)[C@H](Cc1ccc(CP(=O)(O)O)cc1)NC(=O)[C@H](CCC(=O)O)NC(=O)[C@H](CCC(=O)O)NC(=O)[C@@H](N)CCC(=O)O)C(=O)N[C@@H](CCC(=O)O)C(=O)N[C@@H](CC(=O)O)C(=O)N[C@@H](CC(C)C)C(=O)N[C@@H](Cc1ccc(O)cc1)C(=O)O [L-mT-Pmp315] (H-EEE[Pmp]MPMEDLY-OH) | 0.01 to 0.02
